# In PubChem BioAssay (NCI):
#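 Tested at 5 concentrations; 48 h exposure; 96-well plates; endpoints linearly interpolated, else capped at highest concentration. TGI marks complete inhibition of growth.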
# How the values were obtained:
# Assay in all cases: growth of human tumour cells (NCI), 48 h
# 786-0 renal = test system: 786-0 renal
# A498 renal = test system: A498 renal
# A549 NSCLC = test system: A549 NSCLC
# ACHN renal = test system: ACHN renal
# BT-549 breast = test system: BT-549 breast
# CAKI-1 renal = test system: CAKI-1 renal
# CCRF-CEM leukemia = test system: CCRF-CEM leukemia
# COLO 205 colon = test system: COLO 205 colon
# DU-145 prostate = test system: DU-145 prostate
# EKVX NSCLC = test system: EKVX NSCLC
# HCC-2998 colon = test system: HCC-2998 colon
# HCT-116 colon = test system: HCT-116 colon
# HCT-15 colon = test system: HCT-15 colon
# HL-60(TB) leukemia = test system: HL-60(TB) leukemia
# HOP-92 NSCLC = test system: HOP-92 NSCLC
# HS 578T breast = test system: HS 578T breast
# HT29 colon = test system: HT29 colon
# IGROV1 ovarian = test system: IGROV1 ovarian
# K-562 leukemia = test system: K-562 leukemia
# KM12 colon = test system: KM12 colon
# LOX IMVI melanoma = test system: LOX IMVI melanoma
# M14 melanoma = test system: M14 melanoma
# MALME-3M melanoma = test system: MALME-3M melanoma
# MCF7 breast = test system: MCF7 breast
# MDA-MB-231 breast = test system: MDA-MB-231 breast
# MDA-MB-435 = test system: MDA-MB-435
# MDA-N = test system: MDA-N
# MOLT-4 leukemia = test system: MOLT-4 leukemia
# NCI-H226 lung = test system: NCI-H226 lung
# NCI-H23 lung = test system: NCI-H23 lung
# NCI-H460 lung = test system: NCI-H460 lung
# NCI/ADR-RES ovarian = test system: NCI/ADR-RES ovarian
# OVCAR-3 ovarian = test system: OVCAR-3 ovarian
# OVCAR-5 ovarian = test system: OVCAR-5 ovarian
# OVCAR-8 ovarian = test system: OVCAR-8 ovarian
# PC-3 prostate = test system: PC-3 prostate
# RXF 393 renal = test system: RXF 393 renal
# SF-268 CNS = test system: SF-268 CNS
# SF-295 CNS = test system: SF-295 CNS
# SF-539 CNS = test system: SF-539 CNS
# SK-MEL-2 melanoma = test system: SK-MEL-2 melanoma
# SK-MEL-28 melanoma = test system: SK-MEL-28 melanoma
# SK-MEL-5 melanoma = test system: SK-MEL-5 melanoma
# SK-OV-3 ovarian = test system: SK-OV-3 ovarian
# SN12C renal = test system: SN12C renal
# SNB-19 CNS = test system: SNB-19 CNS
# SNB-75 CNS = test system: SNB-75 CNS
# SW-620 colon = test system: SW-620 colon
# T-47D breast = test system: T-47D breast
# TK-10 renal = test system: TK-10 renal
# U251 CNS = test system: U251 CNS
# UACC-257 melanoma = test system: UACC-257 melanoma
# UACC-62 melanoma = test system: UACC-62 melanoma
# UO-31 renal = test system: UO-31 renal
# HOP-62 NSCLC = test system: HOP-62 NSCLC
# NCI-H522 lung = test system: NCI-H522 lung
# OVCAR-4 ovarian = test system: OVCAR-4 ovarian
# RPMI-8226 leukemia = test system: RPMI-8226 leukemia
# SR leukemia = test system: SR leukemia
compound,measurement,setting,value
Cn1c(COC(=O)Nc2ccccc2)c(COC(=O)Nc2ccccc2)c2ccc3cc(Cl)c(Cl)cc3c21,TGI,786-0 renal,12.6 µM
same,TGI,A498 renal,4.25 µM
same,TGI,A549 NSCLC,> 75 µM
same,TGI,ACHN renal,29 µM
same,TGI,BT-549 breast,12.6 µM
same,TGI,CAKI-1 renal,3.09 µM
same,TGI,CCRF-CEM leukemia,> 75 µM
same,TGI,COLO 205 colon,14.5 µM
same,TGI,DU-145 prostate,31 µM
same,TGI,EKVX NSCLC,44.5 µM
same,TGI,HCC-2998 colon,15.8 µM
same,TGI,HCT-116 colon,38.5 µM
same,TGI,HCT-15 colon,15 µM
same,TGI,HL-60(TB) leukemia,10.4 µM
same,TGI,HOP-92 NSCLC,7.54 µM
same,TGI,HS 578T breast,29 µM
same,TGI,HT29 colon,23.6 µM
same,TGI,IGROV1 ovarian,23.5 µM
same,TGI,K-562 leukemia,> 75 µM
same,TGI,KM12 colon,23.4 µM
same,TGI,LOX IMVI melanoma,13.5 µM
same,TGI,M14 melanoma,19.6 µM
same,TGI,MALME-3M melanoma,6.59 µM
same,TGI,MCF7 breast,10.6 µM
same,TGI,MDA-MB-231 breast,12.7 µM
same,TGI,MDA-MB-435,29.1 µM
same,TGI,MDA-N,18.3 µM
same,TGI,MOLT-4 leukemia,> 75 µM
same,TGI,NCI-H226 lung,54.7 µM
same,TGI,NCI-H23 lung,> 75 µM
same,TGI,NCI-H460 lung,22.9 µM
same,TGI,NCI/ADR-RES ovarian,66.7 µM
same,TGI,OVCAR-3 ovarian,21.6 µM
same,TGI,OVCAR-5 ovarian,24.1 µM
same,TGI,OVCAR-8 ovarian,7.5 µM
same,TGI,PC-3 prostate,20.4 µM
same,TGI,RXF 393 renal,39.5 µM
same,TGI,SF-268 CNS,21.9 µM
same,TGI,SF-295 CNS,64.2 µM
same,TGI,SF-539 CNS,44.6 µM
same,TGI,SK-MEL-2 melanoma,17.9 µM
same,TGI,SK-MEL-28 melanoma,41.4 µM
same,TGI,SK-MEL-5 melanoma,16.1 µM
same,TGI,SK-OV-3 ovarian,> 75 µM
same,TGI,SN12C renal,16.4 µM
same,TGI,SNB-19 CNS,> 75 µM
same,TGI,SNB-75 CNS,19.2 µM
same,TGI,SW-620 colon,> 75 µM
same,TGI,T-47D breast,5.41 µM
same,TGI,TK-10 renal,22.7 µM
same,TGI,U251 CNS,5.01 µM
same,TGI,UACC-257 melanoma,21.6 µM
same,TGI,UACC-62 melanoma,40.7 µM
same,TGI,UO-31 renal,26.5 µM
Clc1ccc(C=Nc2ccc3c(c2)Cc2ccccc2-3)c(Cl)c1,TGI,786-0 renal,> 100 µM
same,TGI,A498 renal,> 100 µM
same,TGI,A549 NSCLC,> 100 µM
same,TGI,ACHN renal,> 100 µM
same,TGI,BT-549 breast,> 100 µM
same,TGI,CAKI-1 renal,> 100 µM
same,TGI,CCRF-CEM leukemia,> 100 µM
same,TGI,COLO 205 colon,> 100 µM
same,TGI,DU-145 prostate,> 100 µM
same,TGI,EKVX NSCLC,> 100 µM
same,TGI,HCT-116 colon,> 100 µM
same,TGI,HCT-15 colon,> 100 µM
same,TGI,HL-60(TB) leukemia,> 100 µM
same,TGI,HOP-62 NSCLC,> 100 µM
same,TGI,HOP-92 NSCLC,> 100 µM
same,TGI,HS 578T breast,> 100 µM
same,TGI,HT29 colon,> 100 µM
same,TGI,IGROV1 ovarian,> 100 µM
same,TGI,K-562 leukemia,> 100 µM
same,TGI,KM12 colon,> 100 µM
same,TGI,LOX IMVI melanoma,> 100 µM
same,TGI,M14 melanoma,> 100 µM
same,TGI,MALME-3M melanoma,> 100 µM
same,TGI,MCF7 breast,> 100 µM
same,TGI,MDA-MB-231 breast,> 100 µM
same,TGI,MDA-MB-435,> 100 µM
same,TGI,MDA-N,> 100 µM
same,TGI,MOLT-4 leukemia,> 100 µM
same,TGI,NCI-H226 lung,> 100 µM
same,TGI,NCI-H23 lung,> 100 µM
same,TGI,NCI-H460 lung,> 100 µM
same,TGI,NCI-H522 lung,> 100 µM
same,TGI,NCI/ADR-RES ovarian,> 100 µM
same,TGI,OVCAR-3 ovarian,> 100 µM
same,TGI,OVCAR-4 ovarian,> 100 µM
same,TGI,OVCAR-5 ovarian,> 100 µM
same,TGI,OVCAR-8 ovarian,> 100 µM
same,TGI,PC-3 prostate,> 100 µM
same,TGI,RPMI-8226 leukemia,> 100 µM
same,TGI,RXF 393 renal,> 100 µM
same,TGI,SF-268 CNS,> 100 µM
same,TGI,SF-295 CNS,> 100 µM
same,TGI,SF-539 CNS,> 100 µM
same,TGI,SK-MEL-2 melanoma,> 100 µM
same,TGI,SK-MEL-28 melanoma,> 100 µM
same,TGI,SK-MEL-5 melanoma,> 100 µM
same,TGI,SK-OV-3 ovarian,> 100 µM
same,TGI,SN12C renal,> 100 µM
same,TGI,SNB-19 CNS,> 100 µM
same,TGI,SNB-75 CNS,> 100 µM
same,TGI,SR leukemia,> 100 µM
same,TGI,SW-620 colon,> 100 µM
same,TGI,T-47D breast,> 100 µM
same,TGI,TK-10 renal,> 100 µM
same,TGI,U251 CNS,> 100 µM
same,TGI,UACC-257 melanoma,> 100 µM
same,TGI,UACC-62 melanoma,> 100 µM
same,TGI,UO-31 renal,> 100 µM
